Assay [1] has as its system CD8^+ T cells. Briefly: Intracellular cytokine staining for IFN-γ, IL-2 and TNF-α. Format: cell-based, BALB/c mice. The note with it: HIV-1BaL Env-immunized mice (DNA-primed/rAd-boosted); peptide stimulation.
In assay [2] the test system is CD8^+ T cells. Format: cell-based, BALB/c mice. The note with it: intracellular IFN-γ.

Like-named read-outs stand apart in the source and are kept apart here.

As to IGPGRAFYA [PA9], the “proportion of triple-positive (IFN-γ, IL-2, TNF-α) CD8^+ T cells” value in assay [1] came to 46%. IGPGRAFYTT [PT10]: the “recall response to peptide (in words)” value in assay [2] (mice immunized with the HIV-1IIIB vaccine) was “failed to respond”. RGPGRAFVTI [P18I10, reference compound]: the “recall response to peptide (in words)” value in assay [2] (mice primed with HIV-1BaL DNA and boosted with rAd) is “did not respond”.

For the origin of these results see publication PMC2858449 (Journal of immunology (Baltimore, Md. : 1950), 2009).
